How the values were obtained:
[1] = Phase 2 trial in thalassemia intermedia patients, safety; type: in vivo, human
Protocol: A randomized, doubled blind, placebo-controlled, multiple ascending dose Phase I/II trial was conducted in 21 adult patients with beta thalassemia intermedia, including 14 patients with HbE/β^0 thalassemia from Thailand and 7 patients with β^+/β^0 thalassemia (including 12 different beta globin gene mutations). Study medication was taken as a single daily dose of DMB for 8 weeks followed minimally by a 4 week break and follow-up period. Four ascending dose levels (10, 20, 30, and 40 mg/kg/day) were sequentially evaluated in 4 dose level cohorts after the preceding dose and schedule were determined safe by an independent and unblinded Safety Monitoring Committee.
All treatment groups had two placebo patients; placebo patients in the first dose group were randomized to treatment in the second dose group. Ten patients in Thailand (all HbE type) were treated with 10 mg/kg (8 active/2 placebo) followed by eight patients in Thailand who were treated followed by 30 mg/kg (6 active/2 placebo). Eleven patients (4 That, 7 Lebanese) were treated with 20 mg/kg followed by 40 mg/kg (9 active [6 Lebanese/3 That]/2 placebo). Patients ranged in age from 17 to 49 with a median age of 31 and were comprised for 16 females and 5 males.
Patients were monitored every 2 weeks for laboratory studies, physical examinations, and adverse events. Further, patients were followed for hematologic parameters primarily focusing on hemoglobin and fetal hemoglobin (HbF). In addition, pharmacokinetic samples were obtained on Day 0 and 13, at pre-dose and 2, 4, 6, 8, 12, and 24 hours post-dosing. Hemoglobin was measured at each site using standard hematology equipment. HbF was measured using Varian HPLC. […] Adverse events in treated subjects included headache, upper respiratory infection, pyrexia, fatigue, nausea, and dizziness, but the rates of such events were not markedly different from those observed in the placebo-treated subjects.

[2] = Dose range-finding embryo/fetal developmental toxicity in rats; type: in vivo
Protocol: DMB was administered orally by gavage to 4 groups of 8 bred female Sprague Dawley rats once daily from gestation Days 6 through 17, at dosage levels of 50, 150, 500 and 1000 mg/kg/day. […] On gestation Day 20, a laparohysterectomy was performed on each surviving female.

[3] = Phase 1 repeat-dose clinical study, safety; type: in vivo, human
Protocol: DMB was evaluated in a phase 1, placebo-controlled, randomized, repeat dose clinical study that evaluated tolerability, safety, and pharmacokinetics in healthy volunteers. A total of 41 subjects (31 receiving active drug and 10 receiving placebo) completed 14 consecutive days of study medication at daily dose levels of 5, 10 or 15 mg/kg (10 subjects received placebo). Given the importance of iron in red blood cell production, and the requirement for iron supplementation for induction of HbF with other erythropoietic agents, subjects at all 3 dose levels received oral ferrous gluconate on the study medication days. DMB was administered with food to all but one group (5 mg/kg, cohort 1). Subjects were admitted and observed for 24 hours following initial dosing. Thereafter, the study drug was taken once per day at home, except for the last study day. The subjects were monitored weekly for 6 weeks. Thirty-seven subjects completed the study and 4 subjects dropped out due to conflicts. Safety and PK data are available on these subjects.
The treatment groups included: Cohort 1: 5 mg/kg fasting, 6 active, 2 placebo; Cohort 2: 5 mg/kg with food, 7 active, 2 placebo (3 drop outs); Cohort 3: 5 mg/kg with food and iron supplements, 6 active, 2 placebo (1 drop out); Cohort 4: 10 mg/kg with food and iron supplements, 6 active, 2 placebo; and Cohort 5: 15 mg/kg with food and iron supplements, 6 active, 2 placebo. Subjects in Cohorts 3, 4, and 5 received a single daily dose of ferrous gluconate (325 mg). The iron supplement was administered to evaluate study medication tolerability when taken with iron. No subjects discontinued due to AEs or safety concerns. Fewer subjects reported an event in the highest dose cohort following eating a meal ([…]) than were reported in the lower dose cohorts ([…], 5 and 10 mg/kg).
The AEs observed in this study are described in Table 11. All events were assessed as mild by the Principal Investigator and resolved either on study or post study. No SAEs were reported. Two subjects had transient lymphadenopathy that were not considered related to study medication. No laboratory abnormalities of significance were noted except one patient developed a urinary tract infection. No clinically significant ECG abnormalities were noted.

[4] = molecular target: T1, hERG channels (Homo sapiens, UniProt Q12809); assay: hERG channel, voltage-clamped human embryonic kidney cells; type: cell-based; details: concentrations up to 1 mM (138 μg/mL)
T1 construct: expressed in transfected cells
T1 sequence (Q12809 whole entry): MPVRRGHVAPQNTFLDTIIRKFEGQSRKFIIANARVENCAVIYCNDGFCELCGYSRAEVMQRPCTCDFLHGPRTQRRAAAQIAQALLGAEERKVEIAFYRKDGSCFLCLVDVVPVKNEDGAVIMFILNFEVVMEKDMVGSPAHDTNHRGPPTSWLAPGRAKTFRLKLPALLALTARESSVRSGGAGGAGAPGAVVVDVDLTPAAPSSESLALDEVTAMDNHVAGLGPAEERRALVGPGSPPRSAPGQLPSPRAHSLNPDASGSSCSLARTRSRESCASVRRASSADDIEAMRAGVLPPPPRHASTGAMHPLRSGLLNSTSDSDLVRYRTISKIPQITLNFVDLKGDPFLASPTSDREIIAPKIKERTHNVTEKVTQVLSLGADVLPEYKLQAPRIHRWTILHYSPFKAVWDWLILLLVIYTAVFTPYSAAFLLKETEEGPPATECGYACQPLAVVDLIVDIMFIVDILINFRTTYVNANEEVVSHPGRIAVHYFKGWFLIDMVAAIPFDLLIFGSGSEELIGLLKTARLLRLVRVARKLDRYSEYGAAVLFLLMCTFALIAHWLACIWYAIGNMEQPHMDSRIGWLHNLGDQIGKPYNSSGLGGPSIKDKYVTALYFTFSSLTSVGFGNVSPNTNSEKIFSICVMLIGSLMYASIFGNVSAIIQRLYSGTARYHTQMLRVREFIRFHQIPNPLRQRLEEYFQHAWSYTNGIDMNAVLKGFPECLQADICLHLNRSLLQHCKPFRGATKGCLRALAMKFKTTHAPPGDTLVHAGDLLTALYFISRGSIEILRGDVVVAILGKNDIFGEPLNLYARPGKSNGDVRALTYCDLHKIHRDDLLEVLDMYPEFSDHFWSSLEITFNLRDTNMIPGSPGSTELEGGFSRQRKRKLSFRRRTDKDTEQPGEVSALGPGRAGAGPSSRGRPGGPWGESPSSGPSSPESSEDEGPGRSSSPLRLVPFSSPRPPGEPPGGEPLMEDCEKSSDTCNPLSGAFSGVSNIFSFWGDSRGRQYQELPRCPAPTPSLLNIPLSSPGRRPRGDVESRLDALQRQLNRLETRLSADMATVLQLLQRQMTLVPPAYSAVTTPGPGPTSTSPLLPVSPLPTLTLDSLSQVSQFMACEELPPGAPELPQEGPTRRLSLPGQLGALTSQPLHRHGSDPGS
Protocol: Cardiovascular safety pharmacology assessments included an in vitro screen to evaluate the effects of DMB on cardiac ion channel and an in vivo evaluation of cardiovascular and hemodynamic effects in Beagle dogs. Electrophysiologic effects were evaluated in laboratory studies utilizing voltage-clamped human embryonic kidney cells transformed by adenovirus cDNA and transfected with cDNA in order to stably express the human ether a-go-go related gene (hERG). The effect on cellular hERG channels was evaluated at DMB concentrations up to 1 mM (138 μg/mL).

Structure (SMILES): CCC(C)(C)C(=O)[O-].[Na+] [DMB, Sodium 2,2-dimethylbutyrate]
- Dizziness ([1]; 10 mg/kg): 2 (25) n (%)
- Fatigue ([1]; 10 mg/kg): 1 (13) n (%)
- Headache ([1]; 10 mg/kg): 5 (63) n (%)
- Nausea ([1]; 10 mg/kg): 0 n (%)
- Pyrexia ([1]; 10 mg/kg): 3 (38) n (%)
- Serious adverse event: Palpitations ([1]; 10 mg/kg): 1 (13) 10 mg/kg n (%)
- Treatment Related? (Palpitations) ([1]; 10 mg/kg): Not related to treatment
- Upper Respiratory Tract Infection ([1]; 10 mg/kg): 5 (63) n (%)
- subjects who discontinued study medication due to anemia ([1]; 10 mg/kg, considered not related to study medication): Two
- Dizziness ([1]; 20 mg/kg): 2 (22) n (%)
- Fatigue ([1]; 20 mg/kg): 0 n (%)
- Headache ([1]; 20 mg/kg): 3 (33) n (%)
- Nausea ([1]; 20 mg/kg): 2 (22) n (%)
- Pyrexia ([1]; 20 mg/kg): 0 n (%)
- Serious adverse event: Suprapubic Pain ([1]; 20 mg/kg): 1 (11) 20 mg/kg n (%)
- Treatment Related? (Suprapubic Pain) ([1]; 20 mg/kg): Unlikely related
- Upper Respiratory Tract Infection ([1]; 20 mg/kg): 2 (22) n (%)
- Dizziness ([1]; 30 mg/kg): 0 n (%)
- Fatigue ([1]; 30 mg/kg): 0 n (%)
- Headache ([1]; 30 mg/kg): 2 (33) n (%)
- Nausea ([1]; 30 mg/kg): 0 n (%)
- Pyrexia ([1]; 30 mg/kg): 2 (33) n (%)
- Upper Respiratory Tract Infection ([1]; 30 mg/kg): 1 (17) n (%)
- Dizziness ([1]; 40 mg/kg): 1 (11) n (%)
- Fatigue ([1]; 40 mg/kg): 4 (44) n (%)
- Headache ([1]; 40 mg/kg): 1 (11) n (%)
- Nausea ([1]; 40 mg/kg): 3 (33) n (%)
- Pyrexia ([1]; 40 mg/kg): 1 (11) n (%)
- Serious adverse event: Gastritis ([1]; 40 mg/kg): 1 (11) 40 mg/kg n (%)
- Treatment Related? (Gastritis) ([1]; 40 mg/kg): Not related to treatment
- Upper Respiratory Tract Infection ([1]; 40 mg/kg): 1 (11) n (%)
- tolerability ([1]; 10 to 40 mg/kg/day, 8 weeks): well tolerated
- Serious adverse event: Gastroenteritis ([1]; HQK-1001 groups): 0 n (%)
- Serious adverse event: Upper Respiratory Infection ([1]; HQK-1001 groups): 0 n (%)
- maternal or fetal effects ([2]; 50 mg/kg/day): No maternal or fetal effects
- postimplantation loss ([2]; 150 mg/kg/day): Increased postimplantation loss
- acceptability of dosage for a definitive embryo/fetal developmental toxicity study ([2]; rat, in vivo): considered unacceptable
- SAEs reported ([3]; 5, 10, 15 mg/kg for 14 days): No SAEs
- dose limiting toxicity ([3]; 5, 10, 15 mg/kg for 14 days): No dose limiting toxicity
- tolerability ([3]; 5 to 15 mg/kg/day for 14 consecutive days): well-tolerated
- Subject incidence of Abdominal pain ([3]; DMB N = 31): 3%
- Subject incidence of Contusion of elbow ([3]; DMB N = 31): 3%
- Subject incidence of Diarrhea ([3]; DMB N = 31): 6%
- Subject incidence of Fatigue ([3]; DMB N = 31): 3%
- Subject incidence of Flatulence ([3]; DMB N = 31): 6%
- Subject incidence of Gastritis ([3]; DMB N = 31): 3%
- Subject incidence of Gastroenteritis ([3]; DMB N = 31): 3%
- Subject incidence of Headache ([3]; DMB N = 31): 23%
- Subject incidence of Light-headedness ([3]; DMB N = 31): 3%
- Subject incidence of Lymphadenopathy, inguinal ([3]; DMB N = 31): 3%
- Subject incidence of Menstrual cramps ([3]; DMB N = 31): 6%
- Subject incidence of Nausea ([3]; DMB N = 31): 6%
- Subject incidence of Pharyngeal erythema ([3]; DMB N = 31): 3%
- Subject incidence of Pharyngitis ([3]; DMB N = 31): 6%
- Subject incidence of Pregnancy ([3]; DMB N = 31): 3%
- Subject incidence of Reflux esophagitis ([3]; DMB N = 31): 3%
- Subject incidence of Spasm, esophageal ([3]; DMB N = 31): 3%
- Subject incidence of Sunburn ([3]; DMB N = 31): 3%
- Subject incidence of Upper respiratory infection ([3]; DMB N = 31): 3%
- Subject incidence of Urinary tract infection ([3]; DMB N = 31): 3%
- Subject incidence of Vaginal candidiasis ([3]; DMB N = 31): 3%
- activity on hERG channel function [4]: essentially no activity

Reference: patent US8618068B2, “Methods and low dose regimens for treating red blood cell disorders” (priority 2009, dated 2013)
